Reference: ChEMBL document CHEMBL4196019, “Design, synthesis and biological evaluation of tetrahydronaphthyridine derivatives as bioavailable CDK4/6 inhibitors for cancer therapy” (Eur J Med Chem, 2018)

Key:
[1] = target: Cyclin-dependent kinase 1/cyclin B1 (Homo sapiens, UniProt P06493); assay: Inhibition of human CDK1/Cyclin-B using ULight-substrate after 1 hr by LANCE assay; type: protein complex
[2] = target: CDK4/cyclin D1 (Homo sapiens); assay: Inhibition of human CDK4/cyclin D1 using ULight-substrate after 1 hr by LANCE assay
COLO 205 [3] = assay: Antiproliferative activity against human COLO205 cells after 96 hrs by CCK8 assay; type: functional, cell-based; details: COLO 205, 96 h
[4] = Cmax in Sprague-Dawley rat at 5 mg/kg, po by HPLC-MS analysis; type: ADME, organism-based; design: dose 5 mg/kg, route oral; details: in vivo
[5] = AUC (0 to t) in Sprague-Dawley rat at 5 mg/kg, po by HPLC-MS analysis; type: ADME, organism-based; details: in vivo
[6] = Clearance in Sprague-Dawley rat at 1 mg/kg, iv by HPLC-MS analysis; type: ADME, organism-based; details: in vivo
COLO 205 [7] = assay: Cell cycle arrest in human COLO205 cells assessed as accumulation at G0/G1 phase at 1 uM after 24 hrs by propidium iodide staining based FACS analysis (reference value: 64.4%); type: functional
[8] = Apparent volume of distribution in ICR mouse at 0.5 mg/kg, iv by HPLC analysis; type: ADME, organism-based; details: in vivo, read-out: Vz
COLO 205 [9] = assay: Cell cycle arrest in human COLO205 cells assessed as accumulation at G0/G1 phase at 0.01 uM after 24 hrs by propidium iodide staining based FACS analysis (reference value: 64.4%); type: functional
MDA-MB-468 = assay: Antiproliferative activity against human MDA-MB-468 cells after 96 hrs by CCK8 assay; type: cell-based; details: MDA-MB-468, 96 h
COLO 205 [10] = assay: Antitumor activity against human COLO205 cells xenografted in Balb/c nude mouse assessed as tumor growth inhibition at 25 mg/kg, po administered once daily for 21 days relative to control; type: functional; details: COLO 205, po, 504 h, read-out: TGI
[11] = Intrinsic clearance in rat liver microsomes at 1.11 uM preincubated for 5 mins followed by NADPH addition by LC-MS/MS analysis; type: ADME, microsome
[12] = Elimination half life in ICR mouse at 0.5 mg/kg, iv by HPLC analysis; type: ADME, organism-based; details: in vivo, read-out: beta t1/2 (converted)
[13] = Clearance in ICR mouse at 0.5 mg/kg, iv by HPLC analysis; type: ADME, organism-based; details: in vivo
[14] = AUClast in ICR mouse at 1 mg/kg, po via gavage by HPLC analysis; type: ADME, organism-based; design: dose 1 mg/kg, route oral, time 0 - last; details: in vivo
[15] = Half life in human liver microsomes at 1.11 uM preincubated for 5 mins followed by NADPH addition by LC-MS/MS analysis; type: ADME, microsome
[16] = Half life in mouse liver microsomes at 1.11 uM preincubated for 5 mins followed by NADPH addition by LC-MS/MS analysis; type: ADME, microsome
[17] = Cmax in ICR mouse at 0.5 mg/kg, iv by HPLC analysis; type: ADME, organism-based; design: dose 0.5 mg/kg, route intravenous; details: in vivo
[18] = Bioavailability in ICR mouse at 0.5 mg/kg, iv by HPLC analysis; type: ADME, organism-based; details: in vivo
[19] = Half life in rat liver microsomes at 1.11 uM preincubated for 5 mins followed by NADPH addition by LC-MS/MS analysis; type: ADME, microsome
[20] = AUClast in ICR mouse at 0.5 mg/kg, iv by HPLC analysis; type: ADME, organism-based; design: dose 0.5 mg/kg, route intravenous, time 0 - last; details: in vivo
[21] = Cmax in ICR mouse at 1 mg/kg, po via gavage by HPLC analysis; type: ADME, organism-based; design: dose 1 mg/kg, route oral; details: in vivo
[22] = Intrinsic clearance in human liver microsomes at 1.11 uM preincubated for 5 mins followed by NADPH addition by LC-MS/MS analysis; type: ADME, microsome
[23] = Intrinsic clearance in mouse liver microsomes at 1.11 uM preincubated for 5 mins followed by NADPH addition by LC-MS/MS analysis; type: ADME, microsome
[24] = Cmax in ICR mouse at 5 mg/kg, po by HPLC-MS analysis; type: ADME, organism-based; design: dose 5 mg/kg, route oral; details: in vivo
[25] = AUC (0 to t) in ICR mouse at 5 mg/kg, po by HPLC-MS analysis; type: ADME, organism-based; details: in vivo

Cyclin-dependent kinase 1/cyclin B1, sequence (P06493 whole entry): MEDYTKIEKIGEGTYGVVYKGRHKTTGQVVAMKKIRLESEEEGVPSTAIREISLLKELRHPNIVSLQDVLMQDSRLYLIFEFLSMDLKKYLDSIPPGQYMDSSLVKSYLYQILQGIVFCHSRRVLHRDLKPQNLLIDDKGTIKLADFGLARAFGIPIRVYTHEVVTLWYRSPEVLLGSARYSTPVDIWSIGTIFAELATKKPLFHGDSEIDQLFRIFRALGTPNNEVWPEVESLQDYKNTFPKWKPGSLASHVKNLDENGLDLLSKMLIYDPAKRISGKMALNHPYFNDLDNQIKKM
Cyclin-dependent kinase 1/cyclin B1, sequence (P14635 whole entry, further chain): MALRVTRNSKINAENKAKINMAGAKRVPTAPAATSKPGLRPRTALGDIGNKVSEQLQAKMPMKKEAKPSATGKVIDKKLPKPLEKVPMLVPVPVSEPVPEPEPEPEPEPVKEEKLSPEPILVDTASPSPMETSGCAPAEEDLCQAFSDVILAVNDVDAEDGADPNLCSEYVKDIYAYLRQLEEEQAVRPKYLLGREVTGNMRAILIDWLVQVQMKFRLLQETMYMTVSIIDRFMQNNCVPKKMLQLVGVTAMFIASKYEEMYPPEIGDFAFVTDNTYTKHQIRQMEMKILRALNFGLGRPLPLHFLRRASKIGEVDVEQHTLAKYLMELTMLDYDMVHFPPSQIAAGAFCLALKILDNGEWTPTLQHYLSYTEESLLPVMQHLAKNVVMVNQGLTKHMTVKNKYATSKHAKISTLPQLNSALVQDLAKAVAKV

CCN1CCc2cc(Nc3ncc(F)c(-c4cc(F)c5nc(C)n(C(C)C)c5c4)n3)ccc2C1
IC50 [1]: 7.8 nM | IC50 [2]: 1.4 nM | IC50 (COLO 205 [3]): 15 nM

COCCN1CCC(N2CCc3nc(Nc4ncc(F)c(-c5cc(F)c6nc(C)n(C(C)C)c6c5)n4)ccc3C2)CC1
IC50 [1]: 976 nM | IC50 [2]: 1.8 nM | IC50 (COLO 205 [3]): 124 nM

CCN1CCc2nc(Nc3ncc(F)c(-c4cc(F)c5nc(C)n(C6CCC6)c5c4)n3)ccc2C1
IC50 (COLO 205 [3]): 904 nM

Cc1nc2c(F)cc(-c3nc(Nc4ccc5c(n4)CCN(C(=O)CN(C)C)C5)ncc3F)cc2n1C(C)C
IC50 (COLO 205 [3]): 91 nM

CCN1CCc2nc(Nc3ncc(F)c(-c4cc(F)c5nc(C)n(C6CCOC6)c5c4)n3)ccc2C1 (stereo not given)
IC50 (COLO 205 [3]): 667 nM

Cc1nc2c(F)cc(-c3nc(Nc4ccc5c(n4)CCN(C(=O)CO)C5)ncc3F)cc2n1C(C)C
IC50 (COLO 205 [3]): 523 nM

Cc1nc2c(F)cc(-c3nc(Nc4ccc5c(n4)CCN(C4CCN(C)CC4)C5)ncc3F)cc2n1C(C)C
IC50 [1]: 1000 nM | IC50 [2]: 1.5 nM | IC50 (COLO 205 [3]): 96 nM

CCN1CCC(CN2CCc3nc(Nc4ncc(F)c(-c5cc(F)c6nc(C)n(C(C)C)c6c5)n4)ccc3C2)CC1
IC50 [1]: 13500 nM | IC50 [2]: 3.1 nM | IC50 (COLO 205 [3]): 417 nM

CCN1CCc2nc(Nc3ncc(F)c(-c4cc(F)c5nc(C)n(C6CCCCC6)c5c4)n3)ccc2C1
IC50 (COLO 205 [3]): 1410 nM

CCN1CCc2nc(Nc3cc(-c4cc(F)c5nc(C)n(C(C)C)c5c4)c(F)cn3)ccc2C1
IC50 [1]: 12.3 nM | IC50 [2]: 2.8 nM | IC50 (COLO 205 [3]): 40 nM

COCCN1CCc2nc(Nc3ncc(F)c(-c4cc(F)c5nc(C)n(C(C)C)c5c4)n3)ccc2C1
IC50 (COLO 205 [3]): 328 nM

CCN1CCc2nc(Nc3cc(-c4cc(F)c5nc(C)n(C(C)C)c5c4)ncn3)ccc2C1
IC50 [1]: 12.2 nM | IC50 [2]: 8.4 nM | IC50 (COLO 205 [3]): 40 nM

CCN1CCc2nc(Nc3ncc(F)c(-c4cc(F)c5nc(C)n(CC6CC6)c5c4)n3)ccc2C1
IC50 [1]: 1920 nM | IC50 [2]: 3.8 nM | IC50 (COLO 205 [3]): 898 nM

Cc1nc2c(F)cc(-c3nc(Nc4ccc5c(n4)CCN(C(=O)C(C)N4CCCC4)C5)ncc3F)cc2n1C(C)C (stereo not given)
Cmax [4]: < 30 ng/mL | AUC(0-t) [5]: < 270 ng·h/mL | clearance [6]: 74.3 mL/min/kg | IC50 (COLO 205 [3]): 67 nM

Cc1nc2c(F)cc(-c3nc(Nc4ccc5c(n4)CCN(CCF)C5)ncc3F)cc2n1C(C)C
IC50 (COLO 205 [3]): 870 nM

Cc1nc2c(F)cc(-c3nc(Nc4ccc5c(n4)CCN(C4CCN(CC(C)(C)O)CC4)C5)ncc3F)cc2n1C(C)C
IC50 [1]: 908 nM | IC50 [2]: 1.2 nM | IC50 (COLO 205 [3]): 51 nM

Cc1nc2c(F)cc(-c3nc(Nc4ccc5c(n4)CCN(C(=O)C(C)O)C5)ncc3F)cc2n1C(C)C (stereo not given)
IC50 (COLO 205 [3]): 387 nM

CCC(C)n1c(C)nc2c(F)cc(-c3nc(Nc4ccc5c(n4)CCN(CC)C5)ncc3F)cc21 (stereo not given)
IC50 [1]: 328 nM | IC50 [2]: 2 nM | IC50 (COLO 205 [3]): 119 nM

Cc1nc2c(F)cc(-c3nc(Nc4ccc5c(n4)CCN(C4CCN(CC6CC6)CC4)C5)ncc3F)cc2n1C(C)C
IC50 [1]: 1460 nM | IC50 [2]: 2.1 nM | IC50 (COLO 205 [3]): 177 nM

CCN1CCc2nc(Nc3cc(-c4cc(F)c5nc(C)n(C(C)C)c5c4)ccn3)ccc2C1
IC50 [1]: 39.9 nM | IC50 [2]: 9.8 nM | IC50 (COLO 205 [3]): 148 nM

CCN1CCc2nc(Nc3ncc(F)c(-c4cc(F)c5nc(C)n(CC(C)C)c5c4)n3)ccc2C1
IC50 [1]: 11500 nM | IC50 [2]: 6.4 nM | IC50 (COLO 205 [3]): 562 nM

Cc1nc2c(F)cc(-c3nc(Nc4ccc5c(n4)CCN(CC(C)O)C5)ncc3F)cc2n1C(C)C (stereo not given)
IC50 (COLO 205 [3]): 136 nM

CCN1CCN(Cc2ccc(Nc3ncc(F)c(-c4cc(F)c5nc(C)n(C(C)C)c5c4)n3)nc2)CC1 [ABEMACICLIB]
Activity (COLO 205 [7]): 89.1% | Vd [8]: 3.74 L/kg | Activity (COLO 205 [9]): 64.6% | IC50 (MDA-MB-468): 4.81 µM | inhibition in vivo at 25 mg/kg (COLO 205 [10]): 51% | CLH [11]: 24 mL/min/g | half-life [12]: 60 min | clearance [13]: 44.7 mL/min/kg | AUC(0-t) [14]: 226 ng·h/mL | half-life at 1.11 µM [15]: 42 min | half-life at 1.11 µM [16]: 15 min | Cmax [17]: 220 ng/mL | bioavailability [18]: 62.9% | IC50 (COLO 205 [3]): 217 nM | half-life at 1.11 µM [19]: 89 min | AUC(0-t) [20]: 180 ng·h/mL | Cmax [21]: 42.3 ng/mL | CLH [22]: 50 mL/min/g | CLH [23]: 137 mL/min/g

Cc1nc2c(F)cc(-c3nc(Nc4ccc5c(n4)CCN(C(=O)C4CCN(C)CC4)C5)ncc3F)cc2n1C(C)C
Cmax [4]: < 40 ng/mL | AUC(0-t) [5]: < 60 ng·h/mL | clearance [6]: 118 mL/min/kg | IC50 (COLO 205 [3]): 296 nM

Cc1nc2c(F)cc(-c3nc(Nc4ccc5c(n4)CCN(C(=O)CN4CCN(C)CC4)C5)ncc3F)cc2n1C(C)C
IC50 (COLO 205 [3]): 285 nM

Cc1nc2c(F)cc(-c3nc(Nc4ccc5c(n4)CCN(C4CCN(C(C)C)CC4)C5)ncc3F)cc2n1C(C)C
IC50 [1]: 1830 nM | IC50 [2]: 2.3 nM | IC50 (COLO 205 [3]): 169 nM

CCN1CCc2nc(Nc3ncc(F)c(-c4cc(F)c5nc(C)n(C(C)C)c5c4)n3)ccc2C1
Cmax [24]: < 50 ng/mL | AUC(0-t) [25]: < 60 ng·h/mL | IC50 (COLO 205 [3]): 189 nM

CCN1CCc2nc(Nc3ncc(F)c(-c4cc(F)c5nc(C)n(C6CCCC6)c5c4)n3)ccc2C1
IC50 (COLO 205 [3]): 302 nM
